The test system of data set [1] is pulmonary artery smooth muscle cells derived from patients with idiopathic pulmonary arterial hypertension (IPAH-PASMCs). Description: ability to suppress the proliferation of pulmonary artery smooth muscle cells from patients with pulmonary hypertension (MTT assay). To be noted: for suppressive effect on the proliferation of pulmonary artery smooth muscle cells: same method as Example 1, data not shown; for day 2/day 0 cell number ratio (MTT cell viability): 48 hours, IPAH-PASMC line 1, 10% FBS control 1.40. In kind it is cell-based, human. As for the experimental part:
The following compounds were used to assess the abilities of these compounds to suppress the proliferation of pulmonary artery smooth muscle cells from patients with pulmonary hypertension (IPAH-PASMC line: 1)
Those compounds were obtained by synthesis in the Faculty of Pharmaceutical Sciences, Tohoku University. Specifically, first, 66 μl each of pulmonary artery smooth muscle cells derived from patients with idiopathic pulmonary arterial hypertension (IPAH-PASMCs) suspended in a 10% FBS medium (DMEM supplemented with 10% FBS) were seeded in a 96-well plate at 50,000 cells/ml (day −1). 24 Hours after the cell seeding (the time point was defined as day 0), 33 μl each of 300 nM, 3 μM, and 15 μM solutions of CEL-1 to CEL-8, CEL-10, CEL-13 to CEL-15, and CEL-19 in 10% FBS containing 1% DMSO were added to the wells so that the final concentrations were 100 nM, 1 μM, and 5 μM, respectively. As a control, 33 μl of 10% FBS containing 1% DMSO was added in place of CEL-1 to CEL-8, CEL-10, CEL-13 to CEL-15, and CEL-19. On day 0 (immediately before the addition of each of CEL-1 to CEL-8, CEL-10, CEL-13 to CEL-15, and CEL-19), a cell viability was confirmed by performing CellTiter 96 (trademark) AQueous One Solution Cell Proliferation Assay, promega MTT assay. Further, 48 hours after the addition of each of CEL-1 to CEL-8, CEL-10, CEL-13 to CEL-15, and CEL-19 (day 2), the MTT assay was performed again to observe a change in cell viability. Thus, a cell proliferation-suppressing effect was assessed.
In addition, in the case where R^2 in the general formula (I) represents an alkyl group, in order to explore an association between the length of the alkyl group and a pulmonary artery smooth muscle cell proliferation-suppressing effect, a test on an ability to suppress the proliferation of the pulmonary artery smooth muscle cells from patients with pulmonary hypertension (IPAH-PASMC line:1) was performed three times, and the lengths of alkyl groups of the respective compounds and the results of stimulation with the compounds at a concentration of 5 μM for 48 hours (averages of day 2/day 0 cell number ratios) were shown graphically. A Pearson's correlation test was performed on the lengths of the alkyl groups and the day 2/day 0 cell number ratios. As a result, a significant correlation was found with a P-value of 0.0298.

In data set [2] the test system is hypoxia-induced pulmonary hypertension mouse model. Description: hypoxia-induced pulmonary hypertension mouse model. In kind it is in vivo, C57BL/6 mice. To be noted: 10 mg/kg/day continuous subcutaneous infusion. As for the experimental part:
Next, the therapeutic effect of CEL-3 on pulmonary hypertension was assessed in vivo. Specifically, the influence of CEL-3 on a hypoxia-induced pulmonary hypertension mouse model was investigated. The pulmonary hypertension mouse model was generated by breeding 9-week-old male C57BL/6 mice (n=14) in a hypoxic chamber having an oxygen concentration of from 8% to 12%. Before being housed in the hypoxic chamber, the mice were implanted with an osmotic pump containing CEL-3 dissolved with 50% DMSO, and were administered CEL-3 at 10 mg/kg/day by continuous subcutaneous infusion. The Vehicle group was administered a DMSO solution at the same concentration with an osmotic pump. The mice were bred in the hypoxic chamber for 3 weeks and then sacrificed to measure a right ventricular systolic pressure (RVSP) with a pressure catheter 1.2F (Transonic Scisense, US). In addition, after formalin fixation, the right ventricle and the left ventricle were separated to measure a right ventricle/(left ventricle plus septum) weight ratio RV/[LV+S]). Then, the extent of pulmonary hypertension was assessed on the basis of those results. The body weights of the Vehicle group and the CEL-3 administration group before the test were each 25.6±0.3 g. In addition, the body weights of the Vehicle group and the CEL-3 administration group after the test were 24.2±0.8 g and 23.9±0.7 g, respectively.

Data set [3] relates to SU5416/hypoxia-induced pulmonary hypertension rat model. Nature of the data set: SU5416/hypoxia-induced pulmonary hypertension rat model. The data set is classed as in vivo, Sprague-Dawley rats. Particulars: 3 mg/kg intraperitoneally daily for 2 weeks. As for the experimental part: The pulmonary hypertension rat model was generated by: subcutaneously injecting 6-week-old male Sprague-Dawley rats ([…]) with SU5416 at 20 mg/kg; and then breeding the rats in a hypoxic chamber having an oxygen concentration of from 8% to 12% for 3 weeks followed by breeding the rats under normoxia for 2 weeks. After the hypoxic stimulation for 3 weeks, the rats were intraperitoneally injected with CEL-3 dissolved with 10% DMSO at 3 mg/kg daily for 2 weeks. The Vehicle group was intraperitoneally injected with a DMSO solution at the same concentration. The rats were treated with CEL-3 for 2 weeks and then sacrificed to measure a right ventricular systolic pressure (RVSP) with a pressure catheter 1.6F (Transonic Scisense, US). In addition, after formalin fixation, the right ventricle and the left ventricle were separated to measure a right ventricle/(left ventricle plus septum) weight ratio (RV/[LV+S]). Then, the extent of pulmonary hypertension was assessed on the basis of those results. The body weights of the Control group, the Vehicle group, and the CEL-3 administration group before the test were 160.8±1.7 g, 163.4±2.5 g, and 158.9±1.9 g, respectively. In addition, the body weights of the Control group, the Vehicle group, and the CEL-3 administration group after the test were 355.4±5.1 g, 264.91±9.3 g, and 260.0±11.1 g, respectively.

The subject of data set [4] is transcription factor NF-κB. To be noted: Non-patent Literature 2 and 3; cited from earlier work.
Data set [5] concerns the target zinc finger protein ZFC3H1 (Homo sapiens, UniProt O60293). Particulars: Non-patent Literature 2; cited from earlier work.
Data set [6] has as its system pulmonary artery smooth muscle cells. Particulars: previous report, Non-patent Literature 3; cited from earlier work.
The mark [7] stands for this setting: final concentration 100 nm (so in the source).
Setting [8] is: 3 weeks hypoxia, vs control group (FIG. 3).

Chain of zinc finger protein ZFC3H1 (O60293 whole entry): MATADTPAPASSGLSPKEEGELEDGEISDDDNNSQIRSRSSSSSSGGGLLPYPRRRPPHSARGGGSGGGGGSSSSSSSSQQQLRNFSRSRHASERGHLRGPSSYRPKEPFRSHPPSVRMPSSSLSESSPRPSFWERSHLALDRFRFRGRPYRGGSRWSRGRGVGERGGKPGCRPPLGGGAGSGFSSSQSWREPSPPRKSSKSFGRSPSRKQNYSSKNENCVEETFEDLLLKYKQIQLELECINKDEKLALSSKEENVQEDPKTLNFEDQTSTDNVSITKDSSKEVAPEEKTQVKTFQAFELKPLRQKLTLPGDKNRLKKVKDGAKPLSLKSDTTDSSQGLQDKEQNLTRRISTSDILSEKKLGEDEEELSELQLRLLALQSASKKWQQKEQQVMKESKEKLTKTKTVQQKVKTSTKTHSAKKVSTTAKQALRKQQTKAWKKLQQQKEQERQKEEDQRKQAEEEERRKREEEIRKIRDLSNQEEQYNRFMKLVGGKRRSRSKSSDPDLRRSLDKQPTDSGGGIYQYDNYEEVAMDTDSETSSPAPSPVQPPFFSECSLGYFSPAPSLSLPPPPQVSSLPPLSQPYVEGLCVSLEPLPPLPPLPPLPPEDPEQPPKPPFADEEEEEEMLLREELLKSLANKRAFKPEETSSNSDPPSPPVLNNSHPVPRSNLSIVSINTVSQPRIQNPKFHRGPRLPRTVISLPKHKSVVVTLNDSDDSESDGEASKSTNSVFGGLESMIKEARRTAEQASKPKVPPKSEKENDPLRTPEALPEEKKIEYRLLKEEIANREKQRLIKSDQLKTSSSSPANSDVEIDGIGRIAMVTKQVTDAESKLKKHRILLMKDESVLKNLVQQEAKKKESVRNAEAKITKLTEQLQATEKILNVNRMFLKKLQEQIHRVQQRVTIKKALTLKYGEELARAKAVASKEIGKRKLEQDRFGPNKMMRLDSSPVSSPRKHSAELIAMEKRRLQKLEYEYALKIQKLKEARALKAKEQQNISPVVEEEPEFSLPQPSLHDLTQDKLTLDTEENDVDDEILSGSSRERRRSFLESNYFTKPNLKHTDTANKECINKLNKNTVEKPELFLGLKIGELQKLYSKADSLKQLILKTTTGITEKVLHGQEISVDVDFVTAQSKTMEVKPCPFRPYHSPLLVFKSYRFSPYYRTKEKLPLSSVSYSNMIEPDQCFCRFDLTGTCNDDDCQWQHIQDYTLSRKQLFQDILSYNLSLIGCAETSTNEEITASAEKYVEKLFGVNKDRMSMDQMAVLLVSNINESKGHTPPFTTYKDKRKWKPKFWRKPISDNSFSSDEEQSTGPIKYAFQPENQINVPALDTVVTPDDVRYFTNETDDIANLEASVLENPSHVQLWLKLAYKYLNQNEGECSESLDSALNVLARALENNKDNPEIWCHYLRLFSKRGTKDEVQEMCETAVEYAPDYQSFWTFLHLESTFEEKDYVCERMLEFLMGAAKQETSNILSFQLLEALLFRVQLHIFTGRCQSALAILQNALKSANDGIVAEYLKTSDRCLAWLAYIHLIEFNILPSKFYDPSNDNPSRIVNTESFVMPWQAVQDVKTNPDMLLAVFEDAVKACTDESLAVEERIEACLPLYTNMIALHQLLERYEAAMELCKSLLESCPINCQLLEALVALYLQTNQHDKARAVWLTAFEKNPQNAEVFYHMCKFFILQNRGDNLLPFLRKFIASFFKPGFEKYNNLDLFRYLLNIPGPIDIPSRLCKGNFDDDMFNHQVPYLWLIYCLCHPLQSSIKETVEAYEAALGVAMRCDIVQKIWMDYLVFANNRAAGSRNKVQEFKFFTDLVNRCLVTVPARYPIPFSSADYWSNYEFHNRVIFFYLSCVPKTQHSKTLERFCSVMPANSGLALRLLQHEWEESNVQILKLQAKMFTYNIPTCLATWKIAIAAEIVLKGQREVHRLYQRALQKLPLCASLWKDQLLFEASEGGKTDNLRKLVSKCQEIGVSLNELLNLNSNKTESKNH

With `Cc1ccc(S(=O)(=O)N[C@@H](CCCCN)C(=O)CCl)cc1.Cl` [Nα-p-tosyl-L-lysine chloromethyl ketone hydrochloride, reference compound], the “suppressive effect on the proliferation of pulmonary artery smooth muscle cells” value (from here on “suppressive effect on the proliferation”) in data set [1] (final concentration 5 μM) is recorded as “not sufficiently suppressed”.

As for `CCCCCCc1cc(Br)c(O)c(C(=O)c2cc(Cl)c(Cl)[nH]2)c1O` [CEL-15], the “day 2/day 0 cell number ratio (MTT cell viability)” value (“day 2/day 0 cell number ratio” below) in data set [1] (final concentration 1 μM) turned out to be 0.78; in data set [1] (final concentration 5 μM), 0.54; in data set [1] (setting [7]) it was 1.26.

For `CCCCCCCc1cc(Cl)c(O)c(C(=O)c2cc(Cl)c(Cl)[nH]2)c1O` [CEL-6], the “day 2/day 0 cell number ratio” value in data set [1] (final concentration 1 μM) is 0.77; in data set [1] (final concentration 5 μM) it was 0.54; in data set [1] (setting [7]), 1.23.

For the compound `CCCCCCc1cc(Cl)c(O)c(C(=O)c2c[nH]c(Cl)c2Cl)c1O` [CEL-19], the entries for the “day 2/day 0 cell number ratio” value in data set [1] (final concentration 1 μM), in data set [1] (final concentration 5 μM) and in data set [1] (setting [7]) were 1.24, 0.94 and 1.31, respectively.

In the case of `O=C(c1cc(Cl)c(Cl)[nH]1)c1c(O)ccc(Cl)c1O` [CEL-2], the “day 2/day 0 cell number ratio” value was found to be 1.36 in data set [1] (final concentration 1 μM), 0.87 in data set [1] (final concentration 5 μM) and 1.37 in data set [1] (setting [7]).

Take `Cc1cc(Cl)c(O)c(C(=O)c2cc(Cl)c(Cl)[nH]2)c1O` [CEL-3]: the “increase in right ventricle/(left ventricle plus septum) weight ratio (RV/[LV+S])” value in data set [2] (setting [8]) and in data set [3] (vs control group (FIG. 4)) was “suppressed” in each case. The “increase in right ventricular systolic pressure (RVSP)” value in data set [2] (setting [8]) and in data set [3] (vs control group (FIG. 4)) was “suppressed” throughout. For the same compound, the “body weight after the test” value in data set [2] (3 weeks, Vehicle group 24.2±0.8 g) was 23.9 ± 0.7 g; in data set [3] (Vehicle group 264.91±9.3 g), 260.0 ± 11.1 g. Also, the entries for the “day 2/day 0 cell number ratio” value in data set [1] (final concentration 1 μM), in data set [1] (final concentration 5 μM) and in data set [1] (setting [7]) were 0.99, 0.81 and 1.25, respectively.

`O=C(/C=C/c1ccc(O)c(O)c1)OCCc1ccccc1` [caffeic acid phenethyl ester, reference compound]: the “suppressive effect on the proliferation” value in data set [1] (final concentration 5 μM) was “not sufficiently suppressed”.

In the case of `CCCCc1cc(Cl)c(O)c(C(=O)c2cc(Cl)c(Cl)[nH]2)c1O` [CEL-4], the “day 2/day 0 cell number ratio” value in data set [1] (final concentration 1 μM) was 0.79; in data set [1] (final concentration 5 μM) it was 0.53; in data set [1] (setting [7]), 1.24.

In the case of `CCCCCCCCCCCCc1cc(Cl)c(O)c(C(=O)c2cc(Cl)c(Cl)[nH]2)c1O` [CEL-8], the figures for the “day 2/day 0 cell number ratio” value in data set [1] (final concentration 1 μM), in data set [1] (final concentration 5 μM) and in data set [1] (setting [7]) were 0.74, 0.47 and 1.13, respectively.

For the compound `CCCCCCc1cc(Cl)c(O)c(C(=O)c2cc(Br)c(Br)[nH]2)c1O` [CEL-13], the results for the “day 2/day 0 cell number ratio” value in data set [1] (final concentration 1 μM), in data set [1] (final concentration 5 μM) and in data set [1] (setting [7]) were 0.72, 0.51 and 1.20, respectively.

On to `Cc1ccc(S(=O)(=O)N[C@@H](Cc2ccccc2)C(=O)CCl)cc1` [N-p-tosyl-L-phenylalanine chloromethyl ketone, reference compound], for which the “suppressive effect on the proliferation” value in data set [1] (final concentration 5 μM) is given as “not sufficiently suppressed”.

Turning to `CCCCCc1cc(Cl)c(O)c(C(=O)c2cc(Cl)c(Cl)[nH]2)c1O` [CEL-5], the “day 2/day 0 cell number ratio” value is reported as 0.79 in data set [1] (final concentration 1 μM), 0.53 in data set [1] (final concentration 5 μM) and 1.25 in data set [1] (setting [7]).

As for `CCCCCCc1cc(C)c(O)c(C(=O)c2cc(Cl)c(Cl)[nH]2)c1O` [CEL-10], the “day 2/day 0 cell number ratio” value in data set [1] (final concentration 1 μM) worked out at 0.68; in data set [1] (final concentration 5 μM) it was 0.48; in data set [1] (setting [7]) it was 1.16.

Regarding `CCCCCCc1cc(Cl)c(O)c(C(=O)c2cc(Cl)c(Cl)[nH]2)c1O` [CEL-1, celastramycin], the NF-κB-inhibiting action result in data set [4] was “inhibit signal transduction in which a transcription factor NF-κB is involved”. In addition, the “binding to ZFC3H1” value in data set [5] was “binds to a zinc finger protein ZFC3H1”. The “day 2/day 0 cell number ratio” value is on record as 0.83 in data set [1] (final concentration 1 μM), 0.52 in data set [1] (final concentration 5 μM) and 1.46 in data set [1] (setting [7]).

For `CCCCCCCCc1cc(Cl)c(O)c(C(=O)c2cc(Cl)c(Cl)[nH]2)c1O` [CEL-7], the “day 2/day 0 cell number ratio” value in data set [1] (final concentration 1 μM) is listed as 0.84; in data set [1] (final concentration 5 μM), 0.52; in data set [1] (setting [7]) it was 1.27.

Regarding `O=C(Nc1cc(C(F)(F)F)cc(C(F)(F)F)c1)c1cc(Cl)ccc1O` [IMD-0354, N-[3,5-bis(trifluoromethyl)phenyl]-5-chloro-2-hydroxybenzamide, reference compound], the NF-κB-inhibiting action result in data set [4] is recorded as “has an NF-κB-inhibiting action”. Moreover, the “suppression of proliferation of pulmonary artery smooth muscle cells” value in data set [6] was “suppresses the proliferation of pulmonary artery smooth muscle cells”.

In the case of `CCCc1cc(Cl)c(O)c(C(=O)c2ccc(Br)[nH]2)c1O` [CEL-14], the “day 2/day 0 cell number ratio” value is 1.35 in data set [1] (final concentration 1 μM), 0.88 in data set [1] (final concentration 5 μM) and 1.37 in data set [1] (setting [7]).

Source of the values: patent publication US11413273B2, “Prophylactic or therapeutic agent for pulmonary hypertension comprising unsaturated 5-membered heterocycle-containing compound” (TOHOKU UNIVERSITY, priority 2016, dated 2022).
